The record followed here is patent US20240360151A1 (SANOFI, priority 2023, published 2024).

Some results are limits rather than exact numbers.

The target in this assay is T1, NLRP3 inflammasome (Homo sapiens, UniProt Q96P20).
T1 construct: endogenous in cells; host or cells: THP-1 monocytic cells
T1 sequence (Q96P20 whole entry): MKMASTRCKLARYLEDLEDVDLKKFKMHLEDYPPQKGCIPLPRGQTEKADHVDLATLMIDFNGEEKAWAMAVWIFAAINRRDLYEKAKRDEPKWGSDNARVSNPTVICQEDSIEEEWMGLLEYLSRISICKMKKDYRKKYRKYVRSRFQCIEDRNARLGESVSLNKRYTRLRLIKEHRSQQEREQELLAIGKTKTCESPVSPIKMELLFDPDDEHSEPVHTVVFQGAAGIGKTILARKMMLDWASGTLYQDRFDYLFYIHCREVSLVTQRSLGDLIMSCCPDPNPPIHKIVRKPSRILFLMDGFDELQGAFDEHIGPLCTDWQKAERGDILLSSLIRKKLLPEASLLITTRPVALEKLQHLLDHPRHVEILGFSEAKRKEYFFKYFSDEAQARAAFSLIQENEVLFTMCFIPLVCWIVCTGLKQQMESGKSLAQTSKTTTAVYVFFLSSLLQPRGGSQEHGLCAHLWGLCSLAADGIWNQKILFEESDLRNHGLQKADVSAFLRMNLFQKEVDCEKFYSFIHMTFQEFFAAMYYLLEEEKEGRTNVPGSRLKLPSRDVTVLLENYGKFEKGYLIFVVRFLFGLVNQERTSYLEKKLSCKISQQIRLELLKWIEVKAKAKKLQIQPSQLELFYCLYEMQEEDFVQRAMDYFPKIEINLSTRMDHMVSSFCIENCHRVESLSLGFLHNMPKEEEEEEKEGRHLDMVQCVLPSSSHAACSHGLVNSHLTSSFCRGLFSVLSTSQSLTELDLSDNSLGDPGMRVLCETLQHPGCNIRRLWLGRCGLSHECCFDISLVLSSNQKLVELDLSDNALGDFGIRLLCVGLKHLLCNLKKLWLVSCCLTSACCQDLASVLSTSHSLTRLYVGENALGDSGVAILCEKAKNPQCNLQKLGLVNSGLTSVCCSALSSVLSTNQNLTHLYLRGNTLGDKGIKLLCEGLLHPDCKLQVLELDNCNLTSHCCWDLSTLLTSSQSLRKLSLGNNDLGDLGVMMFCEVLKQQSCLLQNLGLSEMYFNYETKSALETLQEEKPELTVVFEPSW
The assay can be described thus: IL-1β secretion assay (NLRP3 IC50) in LPS-primed, nigericin-activated THP-1 cells, HTRF. Format: cell-based. The settings on record: monocytic THP-1 cells; LPS 10 ng/mL 3 h priming, then compound + nigericin 10 μM 2 h; relative IC50, 10 concentrations, geometric mean. In outline:
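IL-1β in supernatant read by HTRF after 2 h co-incubation of compound (0.1% DMSO, 10 concentrations, 1:3 series) with nigericin at 10 μM final, following 3 h LPS (10 ng/mL) priming of THP-1 monocytes at 37° C. Inhibition normalised to unactivated and no-compound controls; geometric-mean relative IC50 from 4-parameter logistic model.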
As usually defined, the IC50 is the concentration at which inhibition is half-maximal. On to `Cc1cc(C)c(-c2ccc(N3CCC[C@@H]4CCN(C)C[C@H]43)nn2)c(O)c1` [Example 517, 2-[6-[(4aR,8aS)-7-methyl-2,3,4,4a,5,6,8,8a-octahydro-1,7-naphthyridin-1-yl]pyridazin-3-yl]-3,5-dimethyl-phenol], for which the IC50 was found to be 1.34 µM.
For `Cc1cc(C)c(-c2ccc(N3CCC4(COCCN4C)C3)nn2)c(O)c1` (centres unmarked) [Example 444, 3,5-dimethyl-2-[6-(6-methyl-9-oxa-2,6-diazaspiro[4.5]decan-2-yl)pyridazin-3-yl]phenol] the value was 4.06 µM; for `CCN1CCOCC2(C1)CN(c1ccc(-c3c(C)cc(C)cc3O)nn1)CCO2` (centres unmarked) [Example 208, 2-[6-(8-ethyl-1,11-dioxa-4,8-diazaspiro[5.6]dodecan-4-yl)pyridazin-3-yl]-3,5-dimethylphenol], 0.972 µM.
For `Cc1cc(C)c(-c2cc(C)c(N3CCO[C@H](CO)C3)nn2)c(O)c1` [Example 109, 2-[6-[(2S)-2-(hydroxymethyl)morpholin-4-yl]-5-methyl-pyridazin-3-yl]-3,5-dimethyl-phenol] the value was 0.089 µM.
With `CCc1cc(C(F)(F)F)cc(O)c1-c1ccc(N2CC[C@@H]3CCN(C)C[C@@H]32)nn1` (racemic) [Example 452, 2-[6-[rac-(3aS,7aR)-6-methyl-3,3a,4,5,7,7a-hexahydro-2H-pyrrolo[2,3-c]pyridin-1-yl]pyridazin-3-yl]-3-ethyl-5-(trifluoromethyl)phenol], the IC50 came to 0.005 µM.
For `Cc1cc(C)c(-c2cc(C(F)F)c(N3CC[C@@H]4CCN(C)C[C@@H]43)nn2)c(O)c1` (single isomer, unassigned) [Example 488] the value was 0.912 µM; for `CC(=O)N1CC[C@@H]2OCCN(c3ccc(-c4c(C)cc(Cl)cc4O)nn3)[C@@H]2C1` (single isomer, unassigned) [Example 304], 0.142 µM; for `Cc1cc(C)c(-c2ccc(N3CCCCC(CO)C3)nn2)c(O)c1` (centres unmarked) [Example 107, 2-[6-[3-(hydroxymethyl)azepan-1-yl]pyridazin-3-yl]-3,5-dimethyl-phenol], 0.385 µM.
For the molecule `Cc1cc(C)c(-c2ccc(N3CCO[C@@H](CS)C3)nn2)c(O)c1` [Example 305, 3,5-dimethyl-2-[6-[(2R)-2-(sulfanylmethyl)morpholin-4-yl]pyridazin-3-yl]phenol], the IC50 was found to be 2.82 µM.
Take `Cc1cc(C)c(-c2ccc(N3CCC[C@H]4CCN(C)C[C@H]43)nn2)c(O)c1` [Example 518, 2-[6-[(4aS,8aS)-7-methyl-2,3,4,4a,5,6,8,8a-octahydro-1,7-naphthyridin-1-yl]pyridazin-3-yl]-3,5-dimethyl-phenol]: the IC50 was determined as 1.22 µM.
Take `Cc1cccc(O)c1-c1ccc(N2CC[C@@H]3CCN(C)C[C@@H]32)nn1` (single isomer, unassigned) [Example 415]: the half-inhibitory concentration (IC50) stood at 4.66 µM.
As for `Cc1cc(C)c(-c2ccc(N3CC4(CCN4C)C3)nn2)c(O)c1` [Example 91, 3,5-dimethyl-2-[6-(1-methyl-1,6-diazaspiro[3.3]heptan-6-yl)pyridazin-3-yl]phenol], the IC50 was 4.93 µM.
Take `C#Cc1cc(C)c(-c2ccc(N3CCO[C@H](CO)C3)nn2)c(O)c1` [Example 508, 5-ethynyl-2-[6-[(2S)-2-(hydroxymethyl)morpholin-4-yl]pyridazin-3-yl]-3-methyl-phenol]: the half-inhibitory concentration (IC50) stood at 0.04 µM.
In the case of `Cc1cc(C)c(-c2ccc(N3CC[C@H]4CCN(C)C[C@H]43)nn2)c(O)c1` (single isomer, unassigned) [Example 383], the IC50 amounted to 1.01 µM.
As for `CCN1CC[C@@H]2CCN(c3ccc(-c4c(C)cc(C)cc4O)nn3)[C@@H]2C1` (single isomer, unassigned) [Example 505], the IC50 came to 0.0004 µM.
As for `Cc1cc(C(F)(F)F)cc(O)c1-c1ccc(N2CCC[C@H]3CCN(C)C[C@H]32)nn1` [Example 524, 2-[6-[(4aS,8aS)-7-methyl-2,3,4,4a,5,6,8,8a-octahydro-1,7-naphthyridin-1-yl]pyridazin-3-yl]-3-methyl-5-(trifluoromethyl)phenol], the IC50 was found to be 0.008 µM.
For the molecule `Cc1cc(Cl)cc(O)c1-c1ccc(N2CCO[C@H](CF)C2)nn1` [Example 339, 5-chloro-2-[6-[(2S)-2-(fluoromethyl)morpholin-4-yl]pyridazin-3-yl]-3-methyl-phenol], the IC50 stood at 0.133 µM.
In the case of `CCN1CC[C@H]2CCN(c3ccc(-c4c(O)cccc4C(F)(F)F)nn3)[C@H]2C1` (racemic) [Example 458, 2-[6-[rac-(3aS,7aR)-6-ethyl-3,3a,4,5,7,7a-hexahydro-2H-pyrrolo[2,3-c]pyridin-1-yl]pyridazin-3-yl]-3-(trifluoromethyl)phenol], the IC50 is 0.002 µM.
As for `Cc1cc(C)c(-c2ccc(N3CCC4(CC3)CNC4)nn2)c(O)c1` [Example 7, 2-[6-(2,7-diazaspiro[3.5]nonan-7-yl)pyridazin-3-yl]-3,5-dimethyl-phenol; 2,2,2-trifluoroacetic acid], the IC50 was found to be 5.47 µM.
As for `Cc1cc(Cl)cc(O)c1-c1ccc(N2CC[C@@H]3CCN(C)C[C@@H]32)nn1` (single isomer, unassigned) [Example 502], the IC50 came to 0.347 µM.
For `CC(=O)N1CCC[C@H]2[C@@H]1CCCN2c1ccc(-c2c(C)cc(C(F)(F)F)cc2O)nn1` [Example 463, 1-[(4aS,8aS)-5-[6-[2-hydroxy-6-methyl-4-(trifluoromethyl)phenyl]pyridazin-3-yl]-2,3,4,4a,6,7,8,8a-octahydro-1,5-naphthyridin-1-yl]ethanone], the IC50 came out at 3.78 µM.
Regarding `Cc1cc(C)c(-c2ccc(N3CCO[C@H](CC(=O)N(C)C)C3)nn2)c(O)c1` (single isomer, unassigned) [Example 150], the 50% inhibitory concentration (IC50) is 1.79 µM.
On to `CCN1CC[C@H]2CCN(c3cc(C(F)F)c(-c4ccc(C)cc4O)nn3)[C@H]2C1` (single isomer, unassigned) [Example 490], for which the half-inhibitory concentration (IC50) is 0.001 µM.
With `Cc1cc(C)c(-c2ccc(N3CC4(CCC(O)CC4)C3)nn2)c(O)c1` [Example 83, 2-[6-(2-hydroxy-4,6-dimethyl-phenyl)pyridazin-3-yl]-2-azaspiro[3.5]nonan-7-ol], the 50% inhibitory concentration (IC50) stood at 2.79 µM.
Next, `CC(=O)N1CC[C@H]2CCN(c3nnc(-c4c(C)cc(C)cc4O)cc3C(F)F)[C@H]2C1` (single isomer, unassigned) [Example 513]: 1.77 µM; `CN1CC[C@@H]2CCN(c3cc(C(F)F)c(-c4ccc(Cl)cc4O)nn3)[C@@H]2C1` (single isomer, unassigned) [Example 501]: less than 0.0003 µM; `CCC(=O)C1CN(c2ccc(-c3c(C)cc(C)cc3O)nn2)CCO1` (single isomer, unassigned) [Example 156]: 1.06 µM.
For the molecule `Cc1cc(C)c(-c2ccc(N3CCOCC34CN(C)C4)nn2)c(O)c1` [Example 455, 3,5-dimethyl-2-[6-(2-methyl-8-oxa-2,5-diazaspiro[3.5]nonan-5-yl)pyridazin-3-yl]phenol], the IC50 was 7.15 µM.
Take `Cc1cc(C(F)(F)F)cc(O)c1-c1ccc(N2CCO[C@H](CN(C)C)C2)nn1` [Example 27, 2-[6-[(2R)-2-[(dimethylamino)methyl]morpholin-4-yl]pyridazin-3-yl]-3-methyl-5-(trifluoromethyl)phenol]: the IC50 worked out at 1.26 µM.
